Test results: paper PMC4787089 (Pharmacognosy Magazine, 2015)
Read-outs that look alike come from different tables or passages of the source.

Columns and labels:
[1] = target: T1, recombinant HDAC8 (Homo sapiens, UniProt Q9BY41); assay: Histone deacetylase 8 inhibitory assay; type: biochemical; settings: 10 μM
T1 sequence (Q9BY41 1-377): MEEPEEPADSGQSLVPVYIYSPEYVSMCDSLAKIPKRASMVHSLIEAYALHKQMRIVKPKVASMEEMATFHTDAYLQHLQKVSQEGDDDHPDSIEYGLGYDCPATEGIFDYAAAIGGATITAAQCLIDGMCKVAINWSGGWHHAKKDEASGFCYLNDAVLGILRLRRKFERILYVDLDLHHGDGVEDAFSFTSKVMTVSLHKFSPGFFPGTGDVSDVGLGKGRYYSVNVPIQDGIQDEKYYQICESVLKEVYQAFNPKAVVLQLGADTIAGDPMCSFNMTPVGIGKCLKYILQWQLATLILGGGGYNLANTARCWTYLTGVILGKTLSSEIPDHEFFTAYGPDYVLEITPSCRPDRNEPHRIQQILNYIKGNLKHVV

[2] = test system: tested cancer cell lines (HepG2, Hep2, HCT116, RD, MCF7); assay: In vitro cytotoxicity, summary statements over tested cancer cell lines; type: cell-based, human
[3] = test system: bovine brain tubulin; assay: Tubulin polymerization assay; type: biochemical; settings: 10 μM
[4] = Homo sapiens, RD, read-out: IC50 against cancer cell lines

Row | SMILES | Percentage inhibition HDAC8 activity [1] | IC50 [2, 4] | also measured
1 | O=Cc1ccc(CO)o1 [5-(hydroxymethyl)-2-furaldehyde] | < 30% |  | 
2 | Nc1ncnc2c1ncn2[C@@H]1O[C@H](CO)[C@@H](O)[C@H]1O [Adenosine, adenosine] | stimulated HDAC8 activity |  | 
3 | O=c1ccc2ccc3occc3c2o1 [Angelicin, angelicin] |  | < 20 µM | SI against cancer cell lines ([2]; tested cancer cell lines (extract and quercetin: except RD cells)): > 7
4 | O=C(/C=C/c1ccc(O)c(O)c1)O[C@@H]1C[C@](O)(C(=O)O)C[C@@H](O)[C@H]1O [Chlorogenic acid, chlorogenic acid] |  |  | Percentage inhibition tubulin polymerization [3]: moderate inhibition
5 | CC(=O)OC1c2c(ccc3ccc(=O)oc23)OC(C)(C)C1OC(=O)C(C)(O)C(C)O (stereo not shown) [Hyuganin E, hyuganin E] |  |  | SI (good selectivity), Hep2, HCT116, and MCF7 ([2]; Hep2, HCT116, and MCF7): > 3; IC50 ([2]; read-out: IC50 values against Hep2, HCT116, and MCF7, Hep2, HCT116, and MCF7): < 25 µM
6 | O=c1cc(-c2ccc(O)c(O)c2)oc2cc(O)cc(O)c12 [Luteolin, luteolin] |  | < 20 µM | 
7 | O=c1c(O)c(-c2ccc(O)c(O)c2)oc2cc(O)cc(O)c12 [Quercetin, quercetin] |  | < 20 µM | 
8 | CC[C@H](CC[C@@H](C)[C@H]1CC[C@H]2[C@@H]3CC=C4C[C@@H](O[C@@H]5O[C@H](CO)[C@@H](O)[C@H](O)[C@H]5O)CC[C@]4(C)[C@H]3CC[C@]12C)C(C)C [β-Sitosterol-3-O-glucoside, β-sitosterol-3-O-glucoside] | stimulated HDAC8 activity |  | 
